Entries after “also recorded” stand apart in the source; their conditions may differ. Where two headings read alike, the source gives them in different places.
Experiments:
[1] = test system: Sprague-Dawley rats, occlusion of middle cerebral artery; test: Transient focal cerebral ischemia (60 min MCAO), infarct volume; type: in vivo, rat
Protocol: Adult rats received transient cerebral ischemia by occluding right middle cerebral artery and both common carotid arteries for 60 min with intraperitoneal injections of vehicle or 50 mg/kg 2-Hydroxy-TTBA at 5 min, 30 min, or 1 hr after reperfusion. Infarct volume was analyzed 24 hr later after staining brain slices with 2% 2,3,5-triphenyltetrazolium chloride (TTC), mean ±SEM (n=8-11 rats per each condition). *, Significant difference from the vehicle control, p<0.05 using ANOVA and Student-Neuman-Keuls' test.
Adult rats received transient cerebral ischemia by occluding right middle cerebral artery and both common carotid arteries for 60 min with intraperitoneal injections of vehicle (control) or 50 or 100 mg/kg 2-Hydroxy-TTBA at 5 min after reperfusion. Infarct volume was analyzed 24 hr later after staining brain slices with 2% 2,3,5-triphenyltetrazolium chloride (TTC), mean ±SEM (n=7-8 rats per each condition). *, Significant difference from the vehicle control, p<0.05 using ANOVA and Student-Neuman-Keuls' test.
(§1) Adult rats received transient cerebral ischemia by occluding right middle cerebral artery and both common carotid arteries for 60 min, with intravenous injections of vehicle (control) or 5 mg/kg 2-Hydroxy-TTBA at 30 min after occlusion or 5 min, 30 min, 1 hr, 2 hr, or 4 hr after reperfusion. Infarct volume was analyzed 24 hr later, mean ±SEM (n=8-11 rats per each condition). *, Significant difference from the vehicle control, p<0.05 using ANOVA and Student-Neuman-Keuls' test.
as §1, with “or 1, 2.5, 5, 10 or 20” for “or 5”, “at 5” for “at 30”, “min” for “min after occlusion or 5 min, 30 min, 1 hr, 2 hr, or 4 hr”, “±SEM (n=8-10” for “±SEM (n=8-11”
as §1, with “with oral administrations” for “with intravenous injections”, “or 10 or 20” for “or 5”, “at 5” for “at 30”, “min” for “min after occlusion or 5 min, 30 min, 1 hr, 2 hr, or 4 hr”, “±SEM (n=8-10” for “±SEM (n=8-11”
Sprague-Dawley rats were anesthetized with chloral hydrate, and subjected to focal cerebral ischemia by occlusion of middle cerebral artery (MCAO) as previously described [Tamura et al., J. Cerebr. Blood Flow Metab. 1:53-60 (1981)]. Both common carotid arteries (CCAs) were exposed and right middle cerebral artery (rMCA) was exposed under the surgical microscope by making a 3 mm diameter craniotomy rostral to the foramen ovale. CCAs and rMCA were occluded with microclips. The clips were released 60 min later and restoration of blood flow in rMCA was observed under the microscope
Animals received MCAO for 60 min, alone or with administration of 2-Hydroxy-TTBA (50 mg/kg, i.p.) at indicated points of time after reperfusion. Saline was injected as a control. Animals were euthanized 24 hr later and brains removed and sectioned coronally into seven 2-mm slices in a brain matrix. […] The infarction area, outline in white, was measured (TINA image analysis system) and infarction volume was calculated by summing the infarct volume showing white of sequential 2-mm-thick section, mean ±SEM (n=8-12 rats/condition) (FIG. 8a). […]

[2] = test system: ALS mice (G93A human SOD1 mutation); test: Neuronal death in spinal cord of ALS transgenic mice (SOD1-G93A); type: in vivo, mouse
Protocol: Bright field photomicrographs of spinal cord sections stained with eosin from amyotrophic lateral sclerosis (ALS) mice over expressing the mutant SOD1-G93A that received vehicle (A) or 2-Hydroxy-TTBA (B, 10 mg/kg/day through drinking water) for 8 weeks from the age of 2 months.
Degenerating neurons from FIG. 7a. were analyzed by counting viable neurons after staining with eosin in the dorsal and ventral horn of spinal cord from ALS mice treated with a vehicle (Control) or 2-Hydroxy-TTBA, mean ±S.E.M (n=5 animals for each condition). *, Significant difference from the vehicle control, p<0.05 using the independent t-test.
Transgenic mice with the G93A human SOD1 mutation (B6SJL-TgN(SOD1-G93A)1Gur), animal models of ALS (ALS mice), were obtained from Jackson Laboratories (ME, USA). 2-hydroxy-TTBA was administered to 2 month-old wild type and ALS transgenic mice through drinking water bottle (10 mg/kg per day) for 8 weeks. Animals were then euthanized and spinal cords processed for histological examination by staining with hematoxylin and eosin. Spinal motor neurons from ALS mice without being treated with 2-hydroxy-TTBA (control) underwent degeneration as evident by eosinophilic staining, which was reduced in ALS mice treated with 2-hydroxy-TTBA (FIG. 7a).
The number of degenerating neurons was analyzed by counting eosinophilic neurons in ventral horn (VH) and dorsal horn (DH).

NMDA receptor = test: Whole cell recording of NMDA-induced inward currents in cultured cortical neurons; type: cell-based, mouse
Protocol: Typical NMDA-induced inward currents (NMDA currents) were evoked by applying 300 μM NMDA to cortical neurons which were held at […]. Successive application of various concentrations of 2-Hydroxy-TTBA reduced the response elicited by 300 μM NMDA in a concentration-dependent manner (n=8).
Cortical neurons were treated with 100 μM 2-Hydroxy-TTBA, washed thoroughly, and then applied with 300 μM NMDA.
Whole cell recordings were performed on cortical cell cultures at room temperature as described [Seo et al., J. Pharmacol. Exp. Ther., 299:377-384 (2001)]. Typical NMDA-induced inward currents (NMDA currents) were evoked immediately after applying 300 μM NMDA to cultured cortical neurons which were held at −70 mV.

[3] = intravenous, 5 min after reperfusion, 60 min MCAO

O=C(O)c1cc(NCc2c(F)c(F)c(C(F)(F)F)c(F)c2F)ccc1O [2-Hydroxy-TTBA, 2-hydroxy-5-(2,3,5,6-tetrafluoro-4-trifluoromethylbenzylamino)benzoic acid]
time after reperfusion up to which delayed injection significantly attenuated infarct volume ([1]; 5 mg/kg intravenous, 60 min MCAO, infarct volume 24 hr later): up to 4 hr
time after reperfusion up to which delayed administration significantly reduced infarct volume ([1]; 50 mg/kg i.p., 60 min MCAO, infarct volume 24 hr later): up to 1 hr
infarct volume after oral administration ([1]; 10 or 20 mg/kg p.o. at 5 min after reperfusion, 24 hr after 60 min MCAO): reduced infarct volume
intravenous doses at which protective effects were observed [1, 3]: higher than 2.5 mg/kg
lowest intravenous dose attenuating infarct volume [1, 3]: ≥ 1 mg/kg
degeneration of spinal motor neurons (eosinophilic staining) ([2]; 10 mg/kg per day in drinking water for 8 weeks from 2 months of age): reduced
degeneration of dorsal and ventral horn neurons (count of eosinophilic neurons) ([2]; 10 mg/kg per day in drinking water for 8 weeks, n=5 animals): significantly prevented degeneration
effect on holding currents (NMDA receptor; 100 μM compound alone): had no effect on the holding currents
effect of pretreatment on response to subsequent 300 μM NMDA (NMDA receptor; 100 μM compound applied alone, then 300 μM NMDA, n=6): did not influence NMDA-induced inward currents; also recorded: had little effect
Hill coefficient of dose response relation to NMDA currents (NMDA receptor; 300 μM NMDA, neurons held at −60 mV, n=8): 0.91
IC50 (NMDA receptor; 300 μM NMDA, neurons held at −60 mV, n=8, read-out: IC50 for NMDA currents (FIG. 2a legend)): ~35 µM
IC50 (NMDA receptor; 300 μM NMDA, neurons held at −70 mV, bath application, n=7-15 neurons/condition, read-out: IC50 for depression of NMDA-evoked currents): 30.6 ± 2.96 µM

Reference: patent publication US7511074B2, “Tetrafluorobenzyl derivatives and pharmaceutical composition for preventing and treating acute and chronic neurodegenerative diseases in central nervous system containing the same” (AmKor Pharma, Inc., priority 2002, dated 2009)
